From patent publication US11529318B2, “Devices and methods for local delivery of tacrolimus” (UNIVERSITY OF PITTSBURGH—OF THE COMMONWEALTH SYSTEM OF …, priority 2017, dated 2022)

Legend:
[1] = RGC viability analysis (calcein/propidium iodide live/dead kit); type: cell-based, rat; details: both sexes, Sprague-Dawley, rat, primary retinal ganglion cells (RGCs), 3 days in vitro
Method: (§1) Retinal ganglion cell isolation. RGCs were isolated from female and male postnatal day three (P3) Sprague-Dawley rat pups, purified by immunopanning, and cultured in NB-SATO media as previously described (Barres, Silverstein et al. 1988). The RGCs were seeded (5×10^3/cm^2) on cell culture plates coated with poly-D-lysine (70 kDa, 10 μg/mL; Sigma-Aldrich Corp., St. Louis, Mo., USA) and laminin (2 μg/mL, Sigma-Aldrich Corp.), and maintained at 37° C. in 10% CO2 for 3 days.
(§2) RGC viability analysis. To analyze RGC viability a calcein and propidium iodide based live/dead kit was used after 3 DIV per the manufacturer's instructions (Life Technologies, R37601). Briefly, RGC cultures were incubated in the live/dead reagent for 15 minutes at room temperature and five random fields per well were imaged at 20× using standard epi-fluorescence fluorescein and rhodamine filter sets (Zeiss, Axio Observer). Live and dead cells were analyzed using ImageJ (National Institutes of Health, Bethesda, Md., USA). All graphical data represents three independent experimental repeats.

[2] = tested on: retinal ganglion cells (RGCs); experiment: as above; type: cell-based, rat; details: for IC50: primary P3 rat RGCs, 3 days in vitro, 0.1 to 100 μM
Method: as §1, §2

[3] = tested on: retinal ganglion cells (RGCs); experiment: RGC neurite growth and branching analysis; type: cell-based, rat
Method: as §1
RGC neurite growth analysis. Neurite growth was analyzed as previously described (Steketee, Oboudiyat et al. 2014). Briefly, RGCs were fixed after 3 DIV with 4% paraformaldehyde (Alfa Aesar; 30525-89-4) in PBS, washed with PBS (2×), and permeabilized with 0.2% triton X-100 in PBS for 15 minutes. After blocking for 1 hour (1% BSA, Fisher Scientific), the RGCs were incubated in anti-β III tubulin (1:300, TUJ-1, Millipore) at 4° C. overnight, washed in PBS (3×), incubated with a FITC-rabbit anti-chicken IgY H+L (1:150, #31501, Thermo Scientific) for 3 hours, washed with PBS (3×), counterstained with the nuclear marker DAPI (1:3000, Invitrogen) for 20 minutes at room temperature, and washed in PBS (2×, 5 min. each). The RGCs were observed as above using epifluorescent microscopy and analyzed using the ImageJ plugin, NeuronJ (National Institutes of Health, Bethesda, Md., USA). Neurites were defined as any projection longer than twice the cell body, and branches were quantified as the number of secondary neurites extending from a primary neurite that originated at the cell body. At least 30 neurons were analyzed blindly as previously described for three independent experimental repeats, totaling at least 90 neurons per condition.

[4] = in vivo; parameters: species or system Sprague-Dawley rats; details: Sprague-Dawley, rat, 2.2 mg/kg/day, tacrolimus concentration
Method: Optic nerve ischemia and PEUU-Tac matrix application. Animals were anesthetized by intraperitoneal injection of 45:10 mg/kg ketamine/xylazine cocktail. Once anaesthetized, the optic nerve was exposed by making a small incision and then creating a nearly bloodless plane through the conjunctiva by blunt dissection with #5 forceps. The surrounding muscle and connective tissue around the optic nerve were then gently separated until the optic nerve was exposed. Using a Yasagril aneurysm clip, the right optic nerve was clamped ˜2 mm behind the globe for 10 seconds (Sarikcioglu, Demir et al. 2007). After removing the clip, ophthalmic artery integrity was confirmed by visualization. For some animals, the optic nerve sheath was fenestrated at the injury site by making an 1-2 mm incision. For animals receiving PEUU-Tac, a 1×5 mm section cut from a 10 mg PEUU-Tac matrix was sutured around the injury site and then secured by suturing to the outer sheath. After each optic nerve procedure, the conjunctiva was sutured and antibiotic ointment (Gentamicin, Bausch & Lomb, Tampa, Fla.) was applied to the eye. In total, twenty-eight animals received acute optic nerve ischemia to the right optic nerve with or without a PEUU-Tac wrap. The experimental groups were as follows: • (1) Five animals received a 1 mm×5 mm section of a 10 mg PEUU-Tac sheet sutured around the nerve. • (2) Five animals received a 1 mm×5 mm section of a 10 mg PEUU-Tac matrix implanted subcutaneously in the lower right quadrant of the abdomen. • (3) Five animals received daily intraperitoneal injections of tacrolimus (2.2 mg/kg/day) for 14 days with the first injection administered immediately after ischemic injury. • (4) Five animals were used as a sham control.
Blood and tissue collection. Twenty-four hours after injury, blood samples were drawn from all four groups via the tail vein. Four of the eight animals treated with PEUU-Tac were sacrificed at 24 hours and sixteen animals were sacrificed at 14 days. Blood, both retinas and both optic nerves were collected from all animals.
Tacrolimus tissue extraction and reconstitution in blood. Tissue (retina and optic nerve) samples were weighted and homogenized with organic solvent (methanol, 100%) using Mini-BeadBeater-1 sonicator for cell disruption and left over night to assure complete tacrolimus extraction. The homogenate was centrifuged at 2100±100 rpm for 10 min. The methanol was transferred to a microcentrifuge tube and evaporated using a sample concentrator. The drug residue was reconstituted with 1 mL of blood. Tacrolimus in the blood was analyzed as described below and tissue drug concentration was expressed in ng/g of tissue weight.
Quantification of tacrolimus in blood by HPLC-tandem mass spectrometry. […]

[5] = tested on: GAP-43 expression; experiment: GAP-43 immunohistochemistry of optic nerve after optic nerve crush; type: in vivo, Sprague-Dawley rats; details: 14 days after optic nerve crush, systemic tacrolimus treatment
[6] = reference range; cited from earlier work

concentration at 14 days ([4]; left optic nerve): 1700 ng/g
concentration at 14 days ([4]; left retina): 618 ng/g
concentration at 14 days ([4]; right optic nerve): 2200 ng/g
concentration at 14 days ([4]; right retina): 530 ng/g
Compound: C=CC[C@@H]1/C=C(\C)C[C@H](C)C[C@H](OC)[C@H]2O[C@@](O)(C(=O)C(=O)N3CCCC[C@H]3C(=O)O[C@H](/C(C)=C/[C@@H]3CC[C@@H](O)[C@H](OC)C3)[C@H](C)[C@@H](O)CC1=O)[C@H](C)C[C@@H]2OC [tacrolimus]
viability at 3 days, 0.5 μM ([1]; 0.5 μM tacrolimus): 87.4%
viability at 3 days, 50 μM ([1]; 50 μM tacrolimus): 0%
increase in RGC viability versus EtOH vehicle (70%) ([2]; 0.5 μM tacrolimus): 17.4%
IC50 ([2]; Rattus norvegicus, 72 h): 24.2 µM
effect of dosage on neuron survival (live/dead study) ([2]; discussion statement): no significant effect
IC50 [2]: 25 µM
share of the increase in total neurite growth manifested in axon growth [3]: 90%
neurite growth compared to all other conditions, including media control ([3]; 50 μM and 100 μM tacrolimus): significantly decreased
longest neurite (axon) growth ([3]; 3 DIV): increased
neurite branching ([3]; 3 DIV): without a change
concentration at which total neurite growth was optimal ([3]; 3 DIV, axons and dendrites): 5 µM
axonal outgrowth ([3]; assays with RGCs and microglia): did not show an increase
total and longest neurite growth ([3]; assays with RGCs only): significantly increased
GAP-43 expression in optic nerve [5]: no significant GAP-43 expression
typical therapeutic trough levels (blood) [6]: 10 to 20 ng/g
